Source: the CheMixHub viscosity set
“And” between values parts separate entries of the source, which are not always exact repeats. Equal entries are not always repeated.

Test: xn = mol fraction of the nth substance listed

CCCCCCCO + CCCCCC
viscosity [mPa·s], 101.33 kPa
Details | 303.15 K | 313.15 K
x1 = 0.0308 | 0.2866 | 0.2693
x1 = 0.0919 | 0.3254 | 0.294
x1 = 0.1567 | 0.3966 | 0.3446
x1 = 0.2496 | 0.5095 | 0.4493
x1 = 0.4018 | 0.7642 | 0.6611
x1 = 0.4831 | 0.9566 | 0.7663
x1 = 0.578 | 1.248 | 0.9882
x1 = 0.6838 | 1.776 | 1.348
x1 = 0.7882 | 2.479 | 1.832
x1 = 0.8946 | 3.522 | 2.473
x1 = 0.9642 | 4.384 | 3.175

C1CCCCCCC1 + CCCCCCC
Details | viscosity [mPa·s]
308.15 K, 101 kPa, x2 = 0.1897 | 1.125

CCCCC + CCCCCCC
298.15 K, 101.33 kPa
Details | viscosity [mPa·s]
x1 = 0.1046 | 0.3691
x1 = 0.2024 | 0.3579
x1 = 0.3087 | 0.3325
x1 = 0.4077 | 0.3173
x1 = 0.4979 | 0.3004
x1 = 0.5999 | 0.2848
x1 = 0.6624 | 0.2762
x1 = 0.7972 | 0.254
x1 = 0.8929 | 0.242

CCCCCCCCCC + CCCCCCC
Details | viscosity
293.15 K, 100 kPa, x1 = 0.3 | 0.506 mPa·s
293.15 K, 101.33 kPa, x2 = 0.321 | 0.725 mPa·s
293.15 K, 101.33 kPa, x2 = 0.587 | 0.584 mPa·s
293.15 K, 101.33 kPa, x2 = 0.81 | 0.489 mPa·s
294.62 K, 101.3 kPa, x2 = 0.49 | 0.64 mPa·s
298.15 K, 101.33 kPa, x2 = 0.0985 | 0.8051 mPa·s
298.15 K, 101.33 kPa, x2 = 0.2017 | 0.745 mPa·s
298.15 K, 101.33 kPa, x2 = 0.3053 | 0.6806 mPa·s
298.15 K, 101.33 kPa, x2 = 0.4073 | 0.6363 mPa·s
298.15 K, 101.33 kPa, x2 = 0.5076 | 0.5891 mPa·s
298.15 K, 101.33 kPa, x2 = 0.6069 | 0.5466 mPa·s
298.15 K, 101.33 kPa, x2 = 0.7083 | 0.4983 mPa·s
298.15 K, 101.33 kPa, x2 = 0.8023 | 0.4575 mPa·s
298.15 K, 101.33 kPa, x2 = 0.903 | 0.4242 mPa·s
303.11 K, 100 kPa, x2 = 0.77 | 0.4628 mPa·s and 0.4626 mPa·s
303.15 K, 101.3 kPa, x2 = 0.77 | 0.4628 mPa·s
303.17 K, 100 kPa, x2 = 0.49 | 0.5761 mPa·s and 0.5762 mPa·s
303.17 K, 101.3 kPa, x2 = 0.49 | 0.5761 mPa·s
313.11 K, 101.3 kPa, x2 = 0.49 | 0.5111 mPa·s
313.15 K, 100 kPa, x1 = 0.3 | 0.393 mPa·s
313.18 K, 101.3 kPa, x2 = 0.77 | 0.4127 mPa·s
323.15 K, 100 kPa, x2 = 0.49 | 0.4588 mPa·s
323.15 K, 101.3 kPa, x2 = 0.49 | 0.4588 mPa·s

CCCCCCCO + CCCCCCC
viscosity [mPa·s], 101.33 kPa
Details | 298.15 K | 303.15 K | 308.15 K | 313.15 K
x1 = 0.0373 | – | 0.402 | – | 0.3519
x1 = 0.0508 | 0.4239 | – | 0.3784 | –
x1 = 0.1004 | 0.4638 | – | 0.4111 | –
x1 = 0.104 | – | 0.469 | – | 0.4152
x1 = 0.1707 | – | 0.543 | – | 0.4918
x1 = 0.2012 | 0.5765 | – | 0.5039 | –
x1 = 0.2845 | – | 0.703 | – | 0.6087
x1 = 0.3013 | 0.7282 | – | 0.6241 | –
x1 = 0.4001 | 0.946 | – | 0.7914 | –
x1 = 0.4114 | – | 0.901 | – | 0.7971
x1 = 0.4992 | 1.243 | – | 1.023 | –
x1 = 0.5113 | – | 1.21 | – | 0.9558
x1 = 0.5981 | 1.702 | – | 1.346 | –
x1 = 0.62 | – | 1.671 | – | 1.318
x1 = 0.699 | 2.261 | – | 1.821 | –
x1 = 0.7301 | – | 2.236 | – | 1.681
x1 = 0.8089 | – | 2.801 | – | 2.082
x1 = 0.85 | 3.616 | – | 2.806 | –
x1 = 0.9029 | – | 3.742 | – | 2.728
x1 = 0.9456 | 4.749 | – | 3.608 | –
x1 = 0.9699 | – | 4.553 | – | 3.322
